This is an account of results in patent US20090208979A1, “Method for identifying antipsychotic drug candidates” (priority 2008, published 2009).

Read-outs that look alike come from different tables or passages of the source.

One data set has as its system ERK2. Particulars: whole cell lysates, normalized to total ERK2, vs control; for reduction of ERK2 phosphorylation: acute treatment, 15 minutes; for increase of ERK2 phosphorylation: chronic treatment, 7 days.
The test system of data set [1] is PKCβ2. It is filed as cell-based, rat.
The next data set concerns GAD67. In kind it is cell-based, rat. Particulars: whole cell lysates, vs control.
The subject of data set [2] is PKC.
Data set [3] concerns PKC. This is another data set of the same source.
The test system of data set [4] is PKCβ2. Particulars: rat, in vivo, ip.
Another data set has as its system GAD67 mRNA. In kind it is in vivo, rat. The note with it: rats, 14 days daily IP (haloperidol 1 mg/kg, fluvoxamine 10 mg/kg, clozapine 10 mg/kg); frontal cortex; vs control.
Data set [5] deals with PKCβ2. In kind it is in vivo, rat. The note with it: rats, chronic 14 days IP; frontal cortex; vs control.
The conditions of data set [6]: rats; haloperidol 1 mg/kg and fluvoxamine 10 mg/kg IP; cited from earlier work.
The subject of data set [7] is negative symptoms of schizophrenia. The note with it: add-on to antipsychotic treatment; clinical studies; cited from earlier work.
Where [8] appears, read: chronic treatment, 7 days, whole cell lysates, vs control.
[9] abbreviates: rats, 14 days daily IP (haloperidol 1 mg/kg, fluvoxamine 10 mg/kg, clozapine 10 mg/kg), frontal cortex, vs control.
Where [10] appears, read: rats, chronic 14 days IP, frontal cortex, vs control.

As to `CN1CCN(C2=Nc3cc(Cl)ccc3Nc3ccccc32)CC1` [clozapine], the “reduction of ERK2 phosphorylation” value with ERK2 came out at 67%. Also, the “increase of ERK2 phosphorylation” value in the data set on ERK2 was determined as 87%. Besides, the “decrease of PKCβ2 protein level” value in the data set with PKCβ2 [1] (acute treatment, 15 minutes, whole cell lysates, vs control) is 31%; with PKCβ2 [1] (setting [8]), 60%. In addition, the “decrease of GAD67 protein level” value in the data set on GAD67 (acute treatment, 15 minutes) is recorded as 25%; with GAD67 (chronic treatment, 7 days), 73%.

Take `COCCCC/C(=N\OCCN)c1ccc(C(F)(F)F)cc1` [fluvoxamine]: in the data set on PKCβ2 [1], the “increase of PKCβ2 protein level” value is given as “did not affect”. The “increase of PKC phosphorylation level” value with PKC [2] was 156%. For the same molecule, in the data set on PKCβ mRNA (rat, in vivo), the “PKCβ mRNA level” value is recorded as “increased significantly”. Besides, in the data set on PKCγ mRNA (rat, in vivo), the “PKCγ mRNA level” value is “increased significantly”. Moreover, in the data set on PKC [3] (rat, in vivo, ip), the “increase of PKC phosphorylation in the membranal fraction” value came to 50% and the “increase of PKC phosphorylation in whole lysate” value was 40%. Also, the “PKCβ2 level, cytosolic compartment” value with PKCβ2 [4] was “reduced level”. Moreover, the “decrease of GAD67 protein level” value in the data set on GAD67 (chronic treatment, 7 days) came out at 60%.

As for `O=C(CCCN1CCC(O)(c2ccc(Cl)cc2)CC1)c1ccc(F)cc1` [haloperidol], the “GAD67 mRNA level” value with GAD67 mRNA is on record as “significantly increased”. In addition, in the data set on ERK2, the “reduction of ERK2 phosphorylation” value is given as “did not alter” and the “increase of ERK2 phosphorylation” value was “did not alter”. Moreover, the “increase of PKCβ2 protein level” value with PKCβ2 [1] (setting [8]) is on record as 106%. Also, in the data set with PKCβ2 [5], the “PKCβ2 protein level, whole tissue lysate” value is “significantly increased”. The “increase of PKC phosphorylation level” value in the data set with PKC [2] (15 minutes treatment (FIG. 11A), whole cell lysates, normalized to β-actin, vs control) was 134%. Further, the “PKCβ mRNA level” value with PKCβ mRNA (setting [9]) was “significantly increased”. Also, the “PKCγ mRNA level” value in the data set with PKCγ mRNA (setting [9]) was “significantly increased”. Further, in the data set on PKC [3] (setting [10]), the “increase of PKC phosphorylation in the membranal fraction” value turned out to be 45% and the “increase of PKC phosphorylation in whole lysate” value is recorded as 38%. Moreover, the “decrease of GAD67 protein level” value in the data set with GAD67 (acute treatment, 15 minutes) is recorded as “did not affect”. Moreover, the “decrease of GAD67 protein level” value in the data set on GAD67 (chronic treatment, 7 days) is listed as “did not affect”. For the same molecule, in data set [6], the “brain and serum concentrations when coadministered compared with given individually” value is “not significantly changed”.

As to `CNCCCC12CCC(c3ccccc31)c1ccccc12` [maprotiline], the “effect on negative symptoms of schizophrenia” value in data set [7] was “did not improve negative symptoms”.
